# Literature values as cited in patent US20250332118A1, “NOVEL ORAL CARE FORMULATIONS FOR TREATMENT OF XEROSTOMIA” (priority 2022, published 2025).
# Conditions: @ 79° F.
structure (smiles),measurement,value
"CS(C)(=O)=O [MSM, Methylsulfonylmethane]",Water solubility,34 % w/v
